Activity calls are given as the source filed them. The rule behind the calls is not given here.
How the values were obtained:
[1] = biological target: Dual specificity mitogen-activated protein kinase kinase; MEK1/2 (Homo sapiens) (UniProt P36507+Q02750); experiment: Inhibition of MEK phosphorylation in human MIA PaCa-2 cells at lower concentration incubated for at least 48 hrs by Western blot analysis; format: cell-based
[2] = Antiproliferative activity against mouse C26 cells harboring KRAS G12D mutant incubated for 72 hrs by CCK8 assay; format: functional, cell-based, C-26; conditions: C26, 72 h
[3] = Toxicity in NU/NU mouse xenografted with human HCT-116 cells harboring KRAS G13D mutant assessed as body weight change at 15 to 30 mg/kg, iv administered 5 times a week for 16 days; format: organism-based; conditions: in vivo, 384 h, dose 15-30 mg/kg, time 16 day
[4] = Toxicity in NU/NU mouse xenografted with human HCT-116 cells harboring KRAS G13D mutant assessed as animal death at 15 to 30 mg/kg, iv administered 5 times a week for 16 days; format: organism-based; conditions: in vivo, 384 h, dose 15-30 mg/kg, time 16 day
MIA PaCa-2 [5] = experiment: Antiproliferative activity against human MIA PaCa-2 cells harboring KRAS G12C mutant at 0.1 uM incubated for 72 hrs by CCK8 assay relative to control; format: functional
[6] = biological target: T1, Dual specificity mitogen-activated protein kinase kinase 1 (Homo sapiens, UniProt Q02750); experiment: Inhibition of MEK1 (unknown origin) assessed as remaining activity at 0.1 uM relative to control
[7] = biological target: T1, Dual specificity mitogen-activated protein kinase kinase 1; experiment: Inhibition of MEK1 (unknown origin) at 1 uM by kinase profiling analysis
[8] = Antitumor activity against mouse C26 cells harboring KRAS G12D mutant xenografted in BALB/c mouse at 30 mg/kg, iv administered 5 times a week for 12 days relative to control; format: functional, C-26; conditions: C26, 288 h, time 12 day, read-out: TGI
[9] = Half life in Sprague-Dawley rat at 5 mg/kg, iv; format: ADME, organism-based; conditions: in vivo
[10] = biological target: T2, Serine/threonine-protein kinase A-Raf (Homo sapiens) (UniProt P10398); experiment: Binding affinity to ARAF (unknown origin) at 1 uM by kinase profiling analysis
T2 sequence (whole entry): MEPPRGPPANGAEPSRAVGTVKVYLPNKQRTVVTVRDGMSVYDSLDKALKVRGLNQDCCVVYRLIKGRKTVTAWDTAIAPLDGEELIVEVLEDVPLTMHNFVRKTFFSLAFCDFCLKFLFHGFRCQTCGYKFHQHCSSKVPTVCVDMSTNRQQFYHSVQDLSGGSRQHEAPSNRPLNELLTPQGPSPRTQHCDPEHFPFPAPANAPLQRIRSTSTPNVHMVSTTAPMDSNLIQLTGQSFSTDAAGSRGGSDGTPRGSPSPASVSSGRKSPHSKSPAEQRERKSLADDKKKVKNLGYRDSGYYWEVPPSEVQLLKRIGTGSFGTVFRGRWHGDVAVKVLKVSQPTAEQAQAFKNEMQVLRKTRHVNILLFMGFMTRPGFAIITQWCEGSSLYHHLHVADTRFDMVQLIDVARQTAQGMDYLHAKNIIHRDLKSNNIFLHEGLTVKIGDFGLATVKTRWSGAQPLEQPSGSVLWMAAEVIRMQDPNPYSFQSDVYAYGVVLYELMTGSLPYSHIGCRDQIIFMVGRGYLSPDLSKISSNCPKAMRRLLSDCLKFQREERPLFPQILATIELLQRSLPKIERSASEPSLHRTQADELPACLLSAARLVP

MIA PaCa-2 [11] = experiment: Induction of apoptosis in human MIA PaCa-2 cells assessed as early apoptotic cells at 0.05 uM incubated for 24 hrs by Annexin V-FITC/PI staining based flow cytometry (reference value: 5.02 %); format: functional
MIA PaCa-2 [12] = experiment: Induction of apoptosis in human MIA PaCa-2 cells assessed as early apoptotic cells at 0.25 uM incubated for 24 hrs by Annexin V-FITC/PI staining based flow cytometry (reference value: 5.02 %); format: functional
HCT-116 = experiment: Antiproliferative activity against human HCT-116 cells harboring KRAS G13D mutant at 1 uM incubated for 72 hrs by CCK8 assay relative to control; format: functional
MIA PaCa-2 [13] = experiment: Induction of apoptosis in human MIA PaCa-2 cells assessed as early apoptotic cells at 1 uM incubated for 24 hrs by Annexin V-FITC/PI staining based flow cytometry (reference value: 5.02 %); format: functional

T1 sequence (Q02750 whole entry): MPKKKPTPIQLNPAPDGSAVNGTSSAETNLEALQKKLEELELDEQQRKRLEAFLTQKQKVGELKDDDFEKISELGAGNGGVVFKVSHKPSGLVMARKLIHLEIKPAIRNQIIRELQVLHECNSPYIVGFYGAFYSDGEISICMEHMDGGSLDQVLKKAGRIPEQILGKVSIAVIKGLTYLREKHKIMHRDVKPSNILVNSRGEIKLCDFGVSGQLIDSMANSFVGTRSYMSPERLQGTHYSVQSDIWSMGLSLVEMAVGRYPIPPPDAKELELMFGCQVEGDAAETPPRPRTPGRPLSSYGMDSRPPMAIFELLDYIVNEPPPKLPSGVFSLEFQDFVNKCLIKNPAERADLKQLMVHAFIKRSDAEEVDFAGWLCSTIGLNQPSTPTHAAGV
Sequence of Dual specificity mitogen-activated protein kinase kinase; MEK1/2 (Homo sapiens) (P36507 whole entry, looked up): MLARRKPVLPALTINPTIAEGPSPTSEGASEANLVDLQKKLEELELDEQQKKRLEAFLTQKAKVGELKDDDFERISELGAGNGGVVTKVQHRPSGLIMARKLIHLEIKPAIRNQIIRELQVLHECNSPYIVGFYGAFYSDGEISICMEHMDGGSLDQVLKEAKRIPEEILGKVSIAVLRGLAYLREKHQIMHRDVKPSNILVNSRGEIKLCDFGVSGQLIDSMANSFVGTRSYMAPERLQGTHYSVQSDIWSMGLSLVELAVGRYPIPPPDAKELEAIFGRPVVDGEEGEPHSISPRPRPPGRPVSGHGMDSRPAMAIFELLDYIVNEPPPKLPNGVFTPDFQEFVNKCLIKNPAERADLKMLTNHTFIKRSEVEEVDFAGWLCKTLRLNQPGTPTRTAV
Sequence of Dual specificity mitogen-activated protein kinase kinase; MEK1/2 (Homo sapiens) (Q02750 whole entry, looked up): as the sequence (Q02750 whole entry) above

SMILES: CCNS(=O)(=O)Nc1cccc(Cn2cnc3c(F)c(Nc4ccc(C5CC5)cc4F)c(C(=O)NOCCO)cc32)c1F
- inhibition [1]: Active
- IC50 [2]: 96 nM
- Activity [3]: Non-Toxic
- Activity [4]: Non-Toxic
- inhibition at 0.1 µM (MIA PaCa-2 [5]): 85%
- Activity [6]: 25%
- inhibition [7]: Active
- inhibition in vivo at 30 mg/kg [8]: 70%
- half-life [9]: 55.2 min
- Activity [10]: Active
- Activity (MIA PaCa-2 [11]): 10.7%
- Activity (MIA PaCa-2 [12]): 30.9%
- inhibition at 1 µM (HCT-116): 61.5%
- Activity (MIA PaCa-2 [13]): 32.3%

From ChEMBL document CHEMBL5584338, “Design, Synthesis, and Biological Evaluation of 5-Amino-4-fluoro-1H-benzo[d]imidazole-6-carboxamide Derivatives as Novel and Potential MEK/RAF Complex Inhibitors Based on the "Clamp" Strategy” (J Med Chem, 2024)
